Values of other authors in US20250288613A1, “COMPOSITIONS AND METHODS TARGETING SAT1 FOR ENHANCING ANTI-TUMOR IMMUNITY DURING TUMOR PROGRESSION” (THE BRIGHAM AND WOMEN’S HOSPITAL, INC., priority 2022, published 2025).

Target: human spermidine/spermine acetyltransferase (SSAT) (Homo sapiens, UniProt P21673)
Conditions: competitive inhibition; spermidine as substrate

human spermidine/spermine acetyltransferase (SSAT), sequence (P21673 whole entry): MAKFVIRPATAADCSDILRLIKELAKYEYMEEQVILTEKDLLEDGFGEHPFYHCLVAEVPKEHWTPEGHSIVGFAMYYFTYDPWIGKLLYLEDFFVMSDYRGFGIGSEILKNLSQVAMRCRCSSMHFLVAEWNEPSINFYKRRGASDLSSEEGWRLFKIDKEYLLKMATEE

Q: With `N=C(N)c1ccc(OCCCCCOc2ccc(C(=N)N)cc2)cc1` [Pentamidine] as the molecule, how does the Ki read?
A: Its Ki is 2400 nM.

Q: Which Ki does the source give for `N=C(N)c1ccc(/N=N/Nc2ccc(C(=N)N)cc2)cc1` [berenil, 4,4′-(1-Triazene-1,3-diyl)bis(benzenecarboximidamide)] here?
A: Its Ki is 2000 nM.
